From patent US6610473B1 (priority 1999, dated 2003)

Target: HPV16-E6 protein (Human papillomavirus type 16, UniProt P03126)
Sequence (P03126 whole entry): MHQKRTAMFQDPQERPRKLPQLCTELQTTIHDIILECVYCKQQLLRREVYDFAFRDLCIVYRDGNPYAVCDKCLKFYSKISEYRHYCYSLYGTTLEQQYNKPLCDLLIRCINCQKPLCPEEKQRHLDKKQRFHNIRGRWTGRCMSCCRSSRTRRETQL

Substance	clones obtained in another screening assay for HPV-E6 protein-binding peptides
NH2-LFDIFRLCAQ PVLVHGHTRV-COOH [E61-20.pep]	obtained
NH2-LVGRVRIGVS VFIRGGRLL-COOH [E61-19.pep]	obtained
